# Test results from patent publication US10513521B2, “Compositions and methods for inhibiting BMP” (The Brigham and Women's Hospital, Inc., priority 2014, dated 2019).
# “And” between values parts separate entries of the source, which are not always exact repeats. Equal entries are not always repeated.
# Assays:
# [1] = molecular target: ALK3 (Homo sapiens, UniProt P36894); assay: TR-FRET enzymatic ALK kinase assay, ALK3
# Description: Briefly, the ALKs enzymatic assay was initiated by dispense 2.5 μl enzyme in 1× kinase reaction buffer. The assay plate was then added with compounds followed by incubation at room temperature for 10 minutes. Then 2.5 μl/well substrate was added.
# [2] = molecular target: T1, ALK1 (Bos taurus, UniProt A4FUX2); assay: In-cell Western ALK1 assay (BAOEC cells, BMP9 as agonist); assay type: cell-based, Bovine; conditions: read-out: BMP9 ICW
# T1 construct: The BAOEC cell line was employed for the measurement of ALK1 activity using BMP9 as the agonist; host or cells: BAOEC (bovine aortic endothelial cells)
# T1 sequence (A4FUX2 23-503): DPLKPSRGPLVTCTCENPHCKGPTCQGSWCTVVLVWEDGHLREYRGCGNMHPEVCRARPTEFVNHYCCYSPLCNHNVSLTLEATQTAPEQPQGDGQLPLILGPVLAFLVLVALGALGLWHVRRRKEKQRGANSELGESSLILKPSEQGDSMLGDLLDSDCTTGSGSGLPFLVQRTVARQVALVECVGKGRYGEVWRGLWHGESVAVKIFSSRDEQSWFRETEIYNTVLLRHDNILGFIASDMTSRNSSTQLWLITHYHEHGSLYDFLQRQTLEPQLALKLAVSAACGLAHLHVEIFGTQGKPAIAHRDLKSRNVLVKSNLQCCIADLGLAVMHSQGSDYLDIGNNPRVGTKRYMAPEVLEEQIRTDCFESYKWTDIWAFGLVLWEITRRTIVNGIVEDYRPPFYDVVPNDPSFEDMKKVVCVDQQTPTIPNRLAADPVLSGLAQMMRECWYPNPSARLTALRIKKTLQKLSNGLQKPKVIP
# Source text: (§1) 3. In-Cell Western ALK1 and ALK2 Assays in 384-Well Plate Format.
# (§2) We also optimized cell-based In-cell Western assays for measurements of ALK1 and ALK2 activities that were used to determine compound activities in these two kinases. The cell lines and agonists used were same as described in above cell-based HTRF ALK1 and ALK2 assays. The initial cell plating and compound treatment were also same. The main difference is the detection of phosphorylation status of SMAD1. In t-cell Western assay, the cells were fixed and phosphorylation status of SMAD1 was detected by the ELISA instead of using the HTRF assay kit in above assay.
# (§3) C2C12 cells and RPMI 1640 medium were obtained from ATCC (Manassas, Va.) and Bovine Aortic endothelial Cells (BAOEC) and epithelial defined growth medium were purchased from Genlantis (San Deigo, Calif.). HyClone Fetal Bovine Serum was obtained from GE healthcare life sciences (Logan, Utah). BMP6 and BMP9 were purchased from R&D System (R&D). Anti-P-SMAD 1/5/8 rabbit mAb and anti-rabbit IgG, HRP-Linked antibody were purchased from Cell Signaling Technology (Danvers, Mass.). BioFX Chemiluminescent Ultra-Sensitive HRP Microwell Substrate ECL Reagent was obtained from SurModics (Edina, Minn.). The compound plates and the white solid MB assay plates were from Greiner Bio-one (Monroe, N.C.).
# (§4) Similarly as described in above HTRF cell-based assay, this assay was performed in 384 well plate format. C2C12 were grown in T225 flasks were sterilely washed with 1×PBS pre-starved with medium containing 0.1% FBS for 20 hours. Pre-starved cells were then plated in 384 well plate in the starvation medium (containing in 0.1% FBS). After 4 hours, compound dilutions in DMSO were added to the assay plate and incubated for 30 minutes. The assay plate was then added with BMP6 for C2C12 cells or BMP9 for BAOEC cells and incubated for 30 minutes.
# (§5) Cells were fixed with 50 ul ice-cold methanol and incubated for 15 min after removing the supernatant. The methanol was removed and filled with 0.5% glutaraldehyde and incubated at room temperature for 15 min. The cells were washed in the plate washer with PBS and blocked with 2% BSA in PBS for 1 h at room temperature on the rotator. After removing the blocking reagent, the cells were incubated with the anti-p-SMAD1 antibody in 2% BSA in PBS for overnight at 4° C. on rotator. The cells were washed with PBS in the plate washer and incubated with HRP conjugated second antibody in 2% BSA in PBS for 1 hour at room temperature. After a cell wash with PBS, ECL detection reagent was added and the plate was read in the luminesce mode in the ViewLux plate reader.
# [3] = molecular target: T2, ALK2 (Mus musculus, UniProt P37172); assay: In-cell Western ALK2 assay (C2C12 cells, BMP6 as agonist); assay type: cell-based; conditions: read-out: BMP6 ICW
# T2 construct: The C2C12 cell line was selected for the measurement of ALK2 activity using BMP6 as the agonist; host or cells: C2C12
# T2 sequence (P37172 21-509): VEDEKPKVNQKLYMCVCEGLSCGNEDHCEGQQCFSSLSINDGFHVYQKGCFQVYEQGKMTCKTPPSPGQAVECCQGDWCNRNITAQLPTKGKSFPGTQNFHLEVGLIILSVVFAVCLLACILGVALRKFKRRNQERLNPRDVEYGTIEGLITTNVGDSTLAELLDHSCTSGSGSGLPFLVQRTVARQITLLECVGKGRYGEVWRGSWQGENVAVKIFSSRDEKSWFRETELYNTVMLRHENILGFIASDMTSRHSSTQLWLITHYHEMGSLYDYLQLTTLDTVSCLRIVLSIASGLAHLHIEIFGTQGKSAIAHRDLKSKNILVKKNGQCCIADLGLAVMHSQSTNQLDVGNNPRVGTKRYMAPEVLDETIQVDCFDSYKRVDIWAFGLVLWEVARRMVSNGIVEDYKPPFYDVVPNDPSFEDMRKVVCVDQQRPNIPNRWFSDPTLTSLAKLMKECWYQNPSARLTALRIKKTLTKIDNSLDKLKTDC
# Source text: as §1, §2
# as §3, with “HyClone” for “C2C12 cells and RPMI 1640 medium were obtained from ATCC (Manassas, Va.) and Bovine Aortic endothelial Cells (BAOEC) and epithelial defined growth medium were purchased from Genlantis (San Deigo, Calif.). HyClone”
# as §4, with “C2C12 were grown in T225 flasks were sterilely washed with 1×PBS pre-starved with medium containing 0.1% FBS for 20 hours.” left out
# as §5, with “The” for “Cells were fixed with 50 ul ice-cold methanol and incubated for 15 min after removing the supernatant. The methanol was removed and filled with 0.5% glutaraldehyde and incubated at room temperature for 15 min. The”
# Chain of ALK3 (P36894 24-532): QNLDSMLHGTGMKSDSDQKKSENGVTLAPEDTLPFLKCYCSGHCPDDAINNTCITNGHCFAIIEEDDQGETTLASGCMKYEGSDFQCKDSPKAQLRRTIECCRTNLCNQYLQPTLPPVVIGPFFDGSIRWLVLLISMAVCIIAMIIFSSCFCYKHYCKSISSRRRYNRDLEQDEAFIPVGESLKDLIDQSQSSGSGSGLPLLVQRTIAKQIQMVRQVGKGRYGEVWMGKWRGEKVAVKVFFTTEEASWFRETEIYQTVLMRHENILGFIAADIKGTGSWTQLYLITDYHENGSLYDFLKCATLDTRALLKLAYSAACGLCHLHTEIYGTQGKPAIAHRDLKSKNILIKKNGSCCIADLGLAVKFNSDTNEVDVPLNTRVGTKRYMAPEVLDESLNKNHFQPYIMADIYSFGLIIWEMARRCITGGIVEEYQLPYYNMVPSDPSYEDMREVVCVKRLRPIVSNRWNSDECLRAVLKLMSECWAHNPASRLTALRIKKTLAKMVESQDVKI
SMILES,IC50 [1],IC50 [2],IC50 [3]
"C[C@@H]1CNC[C@H](C)N1c1ccc(-c2cnc3c(-c4cccc5c(C(N)=O)cccc45)cnn3c2)cc1 [Compound 10, 5-(6-(4-((2S,6R)-2,6-dimethylpiperazin-1-yl)phenyl)pyrazolo[1,5-a]pyrimidin-3-yl)-1-naphthamide]",18 nM,42 nM and 53 nM and 66 nM and 78 nM and 91 nM and 28 nM and 49 nM and 51 nM,
"N/C(=N/O)c1ccc(-c2cnn3cc(-c4ccc(N5CCNCC5)cc4)cnc23)c2ccccc12 [Compound 15, N′-hydroxy-4-(6-(4-(piperazin-1-yl)phenyl)pyrazolo[1,5-a]pyrimidin-3-yl)-1-naphthimidamide]",1340 nM,1500 nM,
"CC(C)(CN1CCCCC1)Oc1ccc(-c2cnc3c(-c4cccc5c(C(N)=O)cccc45)cnn3c2)cc1 [Compound 18, 5-(6-(4-((2-methyl-1-(piperidin-1-yl)propan-2-yl)oxy)phenyl)pyrazolo[1,5-a]pyrimidin-3-yl)-1-naphthamide]",35 nM,26 nM,
"NS(=O)(=O)c1ccc(-c2cnn3cc(-c4ccc(CCN5CCCCC5)cc4)cnc23)c2ccccc12 [Compound 54, 4-(6-(4-(2-(piperidin-1-yl)ethyl)phenyl)pyrazolo[1,5-a]pyrimidin-3-yl)naphthalene-1-sulfonamide]",> 10000 nM,,240 nM and 300 nM and 170 nM and 160 nM
"C[C@@H]1CNC[C@H](C)N1c1ccc(-c2cnc3c(-c4cccc(S(C)(=O)=O)c4)cnn3c2)cc1 [Compound 82, 6-(4-((2R,6S)-2,6-dimethylpiperazin-1-yl)phenyl)-3-(3-(methylsulfonyl)phenyl)pyrazolo[1,5-a]pyrimidine]",540 nM,1.5 µM (2×) and 1 µM and 1.3 µM and 1.8 µM and 360 nM and 960 nM and 2 µM,
"CC(O)c1cccc(-c2cnn3cc(-c4ccc(N5[C@H](C)CNC[C@@H]5C)cc4)cnc23)c1 (stereo partly drawn) [Compound 83, 1-(3-(6-(4-((2R,6S)-2,6-dimethylpiperazin-1-yl)phenyl)pyrazolo[5-a]pyrimidin-3-yl)phenyl)ethanol]",520 nM,1400 nM and 1200 nM and 1500 nM and 1800 nM and 2600 nM and 690 nM and 770 nM and 1600 nM,
"C[S+](=O)([O-])c1cccc(-c2cnn3cc(-c4ccc(OC5(CN6CCCCC6)COC5)cc4)cnc23)c1 [Compound 93, 3-(3-(methylsulfonyl)phenyl)-6-(4-((3-(piperidin-1-ylmethyl)oxetan-3-yl)oxy)phenyl)pyrazolo[1,5-a]pyrimidine]",1500 nM,3300 nM and 1400 nM and 3000 nM and 3800 nM and 3600 nM and 1200 nM and 1900 nM,
"C[C@@H]1CNC[C@H](C)N1c1ccc(-c2cnc3c(-c4cccc(C(C)(C)O)c4)cnn3c2)cc1 [Compound 103, 2-(3-(6-(4-((2R,6S)-2,6-dimethylpiperazin-1-yl)phenyl)pyrazolo[1,5-a]pyrimidin-3-yl)phenyl)propan-2-ol]",310 nM,1400 nM and 560 nM and 1000 nM and 760 nM and 1500 nM and 310 nM and 830 nM,
"CC[S+](=O)([O-])c1cccc(-c2cnn3cc(-c4ccc(N5[C@H](C)CNC[C@@H]5C)cc4)cnc23)c1 [Compound 104, 6-(4-((2R,6S)-2,6-dimethylpiperazin-1-yl)phenyl)-3-(3-(ethylsulfonyl)phenyl)pyrazolo[1,5-a]pyrimidine]",510 nM,1100 nM and 360 nM and 860 nM,96 nM and 70 nM
"C[S+](=O)([O-])c1cccc(-c2cnn3cc(-c4ccc(OC5(Cn6ccnc6)COC5)cc4)cnc23)c1 [Compound 105, 6-(4-((3-((1H-imidazol-1-yl)methyl)oxetan-3-yl)oxy)phenyl)-3-(3-(methylsulfonyl)phenyl)pyrazolo[1,5-a]pyrimidine]",> 10000 nM,1400 nM and 2300 nM and 1200 nM,
"CS(=O)(=O)c1cccc(-c2cnn3cc(-c4ccc(OCCN5CCCC5)cc4)cnc23)c1 [Compound 108, 3-(3-(methylsulfonyl)phenyl)-6-(4-(2-(pyrrolidin-1-yl)ethoxy)phenyl)pyrazolo[1,5-a]pyrimidine]",2600 nM,3900 nM,
C[S+](=O)([O-])c1cccc(-c2cnn3cc(-c4ccc(OCCN5CCCCC5)cc4)cnc23)c1 [Compound 109],1500 nM,,190 nM and 300 nM
"CC(C)S(=O)(=O)c1cccc(-c2cnn3cc(-c4ccc(CCN5CCCCC5)cc4)cnc23)c1 [Compound 113, 3-(3-(isopropylsulfonyl)phenyl)-6-(4-(2-(piperidin-1-yl)ethyl)phenyl)pyrazolo[1,5-a]pyrimidine]",4600 nM,,360 nM and 220 nM
"CC(C)S(=O)(=O)c1cccc(-c2cnn3cc(-c4ccc(N5[C@H](C)CNC[C@@H]5C)cc4)cnc23)c1 [Compound 114, 6-(4-((2R,6S)-2,6-dimethylpiperazin-1-yl)phenyl)-3-(3-(isopropylsulfonyl)phenyl)pyrazolo[1,5-a]pyrimidine]",1100 nM,,110 nM and 88 nM
"CC1(c2ccc(-c3cnc4c(-c5cccc(S(C)(=O)=O)c5)cnn4c3)cc2)CCNCC1 [Compound 115, 6-(4-(4-methylpiperidin-4-yl)phenyl)-3-(3-(methylsulfonyl)phenyl)pyrazolo[1,5-a]pyrimidine]",1700 nM,1500 nM,
"C[C@@H]1CNC[C@H](C)N1c1ccc(-c2cnc3c(-c4cccc(C[S+](C)(=O)[O-])c4)cnn3c2)cc1 [Compound 117, 6-(4-((2R,6S)-2,6-dimethylpiperazin-1-yl)phenyl)-3-(3-((methylsulfonyl)methyl)phenyl)pyrazolo[1,5-a]pyrimidine]",3400 nM,2400 nM,
"CS(=O)(=O)c1cccc(-c2cnn3cc(-c4ccc(CN5CCCCC5)cc4)cnc23)c1 [Compound 123, 3-(3-(methylsulfonyl)phenyl)-6-(4-(piperidin-1-ylmethyl)phenyl)pyrazolo[1,5-a]pyrimidine]",> 10000 nM,,300 nM and 100 nM
"CC(O)c1cccc(-c2cnn3cc(-c4ccc(OC5(CN6CCCCC6)CC5)cc4)cnc23)c1 (stereo not shown) [Compound 143, 1-(3-(6-(4-(1-(piperidin-1-ylmethyl)cyclopropoxy)phenyl)pyrazolo[1,5-a]pyrimidin-3-yl)phenyl)ethanol]",1400 nM,,57 nM and 56 nM
